One series can be described thus: in vitro. The conditions noted are these: PAMPA. (In PAMPA a lipid-coated filter parts donor from acceptor wells.)
A further series deals with Cholinesterase (Equus caballus, UniProt P81908).
The target of series [1] is Amyloid-beta precursor protein (Homo sapiens) (UniProt P05067). Nature of the series: Inhibition of amyloid beta (1 to 42) (unknown origin) self-induced aggregation at 25 uM measured after 46 to 48 hrs by Thioflavin binding assay relative to control. The conditions noted are these: time 46-48 hrs.
Another series deals with Acetylcholinesterase (Electrophorus electricus, UniProt O42275). Nature of the series: Inhibition of Electrophorus electricus AchE using […] as substrate incubated for 10 mins followed by substrate addition measured at 0 to 180 secs by Ellman's method. (In Ellman's method for cholinesterases, released thiocholine reacts with DTNB.)
The test system of another series is PC-12. Nature of the series: Cytoprotective activity against H2O2-induced oxidative damage in rat PC-12 cells assessed as cell viability at 1 uM preincubated for 4 hrs followed by H2O2 treatment for another 24 hrs by MTT assay. In kind it is functional, cell-based. Conditions: time 28.0 hrs. On the technique in general: Formazan colour is commonly taken as a measure of viable cells.

The source made the active and inactive calls. The rule behind the calls is not given here.

Chain of Cholinesterase (P81908 whole entry): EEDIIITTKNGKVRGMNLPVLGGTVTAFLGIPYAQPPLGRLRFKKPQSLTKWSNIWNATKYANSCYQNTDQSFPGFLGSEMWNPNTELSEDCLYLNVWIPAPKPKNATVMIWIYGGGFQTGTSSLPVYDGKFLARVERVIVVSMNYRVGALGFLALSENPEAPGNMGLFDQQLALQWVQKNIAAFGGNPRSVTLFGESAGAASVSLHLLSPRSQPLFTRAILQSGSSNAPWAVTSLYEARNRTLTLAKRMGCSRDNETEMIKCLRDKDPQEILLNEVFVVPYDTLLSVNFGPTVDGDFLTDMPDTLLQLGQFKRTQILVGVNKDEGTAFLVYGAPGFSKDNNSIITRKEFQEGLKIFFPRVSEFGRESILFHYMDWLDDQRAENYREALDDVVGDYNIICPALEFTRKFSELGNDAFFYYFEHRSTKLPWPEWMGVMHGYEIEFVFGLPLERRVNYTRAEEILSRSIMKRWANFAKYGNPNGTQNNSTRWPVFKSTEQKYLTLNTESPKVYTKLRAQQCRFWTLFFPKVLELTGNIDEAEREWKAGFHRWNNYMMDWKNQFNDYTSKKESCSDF
Chain of Acetylcholinesterase (O42275 whole entry): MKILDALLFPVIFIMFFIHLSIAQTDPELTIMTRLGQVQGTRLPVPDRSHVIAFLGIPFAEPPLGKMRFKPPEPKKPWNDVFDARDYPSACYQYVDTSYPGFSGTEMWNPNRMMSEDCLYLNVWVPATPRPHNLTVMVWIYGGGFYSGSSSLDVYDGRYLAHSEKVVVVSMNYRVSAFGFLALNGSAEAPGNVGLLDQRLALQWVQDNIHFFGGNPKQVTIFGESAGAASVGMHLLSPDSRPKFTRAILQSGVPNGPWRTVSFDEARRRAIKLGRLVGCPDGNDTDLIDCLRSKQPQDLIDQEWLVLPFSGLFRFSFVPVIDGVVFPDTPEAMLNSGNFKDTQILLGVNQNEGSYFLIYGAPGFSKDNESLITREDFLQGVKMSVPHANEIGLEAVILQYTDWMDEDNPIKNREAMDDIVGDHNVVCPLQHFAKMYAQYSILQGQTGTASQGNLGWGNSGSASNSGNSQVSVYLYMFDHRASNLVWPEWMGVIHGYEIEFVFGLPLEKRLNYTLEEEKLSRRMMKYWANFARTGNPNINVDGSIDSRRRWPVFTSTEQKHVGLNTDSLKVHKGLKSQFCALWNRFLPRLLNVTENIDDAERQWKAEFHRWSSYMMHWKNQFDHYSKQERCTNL
Chain of Amyloid-beta precursor protein (Homo sapiens) (P05067 whole entry): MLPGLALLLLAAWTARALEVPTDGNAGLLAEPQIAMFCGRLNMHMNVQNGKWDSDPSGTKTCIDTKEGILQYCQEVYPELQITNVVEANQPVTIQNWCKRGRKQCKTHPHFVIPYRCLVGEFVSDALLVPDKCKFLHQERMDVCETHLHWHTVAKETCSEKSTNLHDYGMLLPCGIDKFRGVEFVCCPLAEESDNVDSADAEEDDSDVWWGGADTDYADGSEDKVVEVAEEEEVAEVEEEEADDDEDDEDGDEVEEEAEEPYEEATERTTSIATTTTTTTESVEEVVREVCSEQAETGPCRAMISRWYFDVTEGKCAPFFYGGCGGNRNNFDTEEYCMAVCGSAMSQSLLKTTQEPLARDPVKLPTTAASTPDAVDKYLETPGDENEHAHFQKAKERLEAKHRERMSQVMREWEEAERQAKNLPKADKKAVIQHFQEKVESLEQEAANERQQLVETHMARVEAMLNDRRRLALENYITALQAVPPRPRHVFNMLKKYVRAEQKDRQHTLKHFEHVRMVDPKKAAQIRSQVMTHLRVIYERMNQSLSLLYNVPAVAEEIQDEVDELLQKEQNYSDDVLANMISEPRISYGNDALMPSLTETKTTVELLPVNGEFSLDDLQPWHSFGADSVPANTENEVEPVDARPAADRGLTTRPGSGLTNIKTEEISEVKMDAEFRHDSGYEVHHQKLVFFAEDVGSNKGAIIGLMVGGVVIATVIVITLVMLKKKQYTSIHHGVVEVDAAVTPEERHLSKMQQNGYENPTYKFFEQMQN

As to `CCn1cc(C(=O)O)c(=O)c2cc(F)c(N3CCNC(C)C3)c(F)c21` (configuration not stated) [LOMEFLOXACIN], the Papp – broadly, the rate of passage across a membrane or cell layer, normalised by area and donor concentration – in the series “in vitro” stood at 9 nm/s.

In the case of `CN1CCN(CCCOc2cc3c4c(nccc4c2)-c2ccccc2C3=O)CC1`, the IC50 (usually the concentration at which inhibition is half-maximal) was above 100 µM on Cholinesterase and 0.82 µM on Acetylcholinesterase. The inhibition (in general, the percentage by which the read-out fell short of the control) in series [1] amounted to 29.1%.

As to `O=C1c2ccccc2-c2nccc3cc(OCCN4CCN(CCO)CC4)cc1c23`, the concentration for half-maximal inhibition (IC50) on Cholinesterase is above 100 µM; against Acetylcholinesterase, 0.42 µM. The result in the series with PC-12 was Active. The compound further showed an inhibition in series [1] of 14.9%.

As for `O=C1c2ccccc2-c2nccc3cc(OCCN4CCCCC4)cc1c23`, the half-inhibitory concentration (IC50) came to 6.71 µM at Cholinesterase and 3.69 µM on Acetylcholinesterase. Moreover, the result in the series on PC-12 was Active. The compound further showed an inhibition in series [1] of 27.5%.

With `Clc1cccc(Cl)c1N=C1NCCN1` [CLONIDINE], the Papp in “in vitro” was 57 nm/s.

With `CN1CCN(CCCCOc2cc3c4c(nccc4c2)-c2ccccc2C3=O)CC1`, the IC50 against Cholinesterase is above 100 µM; against Acetylcholinesterase, 1.41 µM. Also, the outcome in the series on PC-12 was Active. This compound also returned an inhibition in series [1] of 25.4%.

Regarding `CC1CCCCN1CCOc1cc2c3c(nccc3c1)-c1ccccc1C2=O` (configuration not stated), the figures for the half-maximal inhibitory concentration (IC50) at Cholinesterase and on Acetylcholinesterase were above 100 µM and 1.31 µM, respectively. Besides, the outcome in the series on PC-12 was Active. In series [1], this compound displayed an inhibition of 16.2%.

Consider `CN1CCN(CCOc2cc3c4c(nccc4c2)-c2ccccc2C3=O)CC1`, for which the IC50 against Cholinesterase was above 100 µM; against Acetylcholinesterase, 0.86 µM. Also, the outcome in the series with PC-12 was Active. In series [1], this compound showed an inhibition of 18.5%.

Take `O=C1c2ccccc2-c2nccc3cc(OCCCCN4CCCCC4)cc1c23`: the IC50 on Cholinesterase was 15.4 µM; at Acetylcholinesterase it was 0.15 µM. Further, the result in the series on PC-12 was Active. Also, in series [1], the inhibition was found to be 32.1%.

On to `O=C1c2ccccc2-c2nccc3cc(OCCCN4CCCCC4)cc1c23`, for which the IC50 is 35.3 µM against Cholinesterase and 0.14 µM against Acetylcholinesterase. For the same compound, the result in the series with PC-12 was Active. Also, the inhibition in series [1] worked out at 41.2%.

Take `O=C1c2ccccc2-c2nccc3cc(OCCCN4CCN(CCO)CC4)cc1c23`: the IC50 against Cholinesterase was above 100 µM; on Acetylcholinesterase, 0.19 µM. Besides, the result with PC-12 was Active. In series [1], this compound came in with an inhibition of 9.7%.

Consider `O=C1c2ccccc2-c2nccc3cc(OCCCCN4CCOCC4)cc1c23`, for which the half-maximal inhibitory concentration (IC50) at Cholinesterase is above 100 µM; on Acetylcholinesterase, 7.3 µM. For the same compound, the outcome in the series with PC-12 was Active. Besides, the inhibition in series [1] was 13.1%.

For `O=C1c2ccccc2-c2nccc3cc(OCCCN4CCOCC4)cc1c23`, the IC50 at Cholinesterase was above 100 µM; against Acetylcholinesterase, 10.2 µM. Also, the outcome with PC-12 was Active. Also, the inhibition in series [1] is 23.5%.

For `O=C1c2ccccc2-c2nccc3cc(OCCCCN4CCN(CCO)CC4)cc1c23`, the IC50 at Cholinesterase is above 100 µM; at Acetylcholinesterase, 0.92 µM. In the series on PC-12, the outcome was Active. Besides, the inhibition in series [1] was 26.1%.

In the case of `O=C1c2ccccc2-c2nccc3cc(OCCN4CCOCC4)cc1c23`, the half-inhibitory concentration (IC50) was above 100 µM at Cholinesterase and 19.7 µM at Acetylcholinesterase. For the same compound, the outcome with PC-12 was Active. Further, in series [1], the inhibition was 24.4%.

Consider `CC1CCCCN1CCCCOc1cc2c3c(nccc3c1)-c1ccccc1C2=O` (configuration not stated), for which the 50% inhibitory concentration (IC50) against Cholinesterase was 4.15 µM; against Acetylcholinesterase, 0.25 µM. Besides, in the series on PC-12, the result was Active. Also, the inhibition in series [1] worked out at 34.8%.

These data come from ChEMBL document CHEMBL5120794, “Development of 5-hydroxyl-1-azabenzanthrone derivatives as dual binding site and selective acetylcholinesterase inhibitors” (Eur J Med Chem, 2022).
